ChEMBL document CHEMBL1201862, “PubChem BioAssay data set” (2004)
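Values below derive from 48-hour exposures of cells grown in 96-well plates, with endpoints linearly interpolated between the two concentrations bracketing the appropriate inhibition level. The concentration for 50% growth inhibition is given as GI50.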 Active and inactive are the calls of the source. Rule as the data show it: active = GI50 up to about 1.1 µM and inactive = higher.

Legend:
Assay in all cases: inhibition of tumour cell growth, NCI panel, 48 h
SK-MEL-28 = test system: SK-MEL-28
SK-MEL-2 = test system: SK-MEL-2
Hs-578T = test system: Hs-578T
SNB-75 = test system: SNB-75
UACC-62 = test system: UACC-62
U-251 = test system: U-251
CCRF-CEM = test system: CCRF-CEM
HCT-15 = test system: HCT-15
M14 = test system: M14
SF-539 = test system: SF-539
NCI/ADR-RES = test system: NCI/ADR-RES
MCF7 = test system: MCF7
NCI-H460 = test system: NCI-H460
UO-31 = test system: UO-31
HOP-62 = test system: HOP-62
TK-10 = test system: TK-10
OVCAR-8 = test system: OVCAR-8
OVCAR-4 = test system: OVCAR-4
RPMI-8226 = test system: RPMI-8226
HCT-116 = test system: HCT-116
NCI-H522 = test system: NCI-H522
EKVX = test system: EKVX
NCI-H226 = test system: NCI-H226
HT-29 = test system: HT-29
SK-MEL-5 = test system: SK-MEL-5
A549 = test system: A549
LOX IMVI = test system: LOX IMVI
SF-268 = test system: SF-268
UACC-257 = test system: UACC-257
MDA-MB-231 = test system: MDA-MB-231
ACHN = test system: ACHN
IGROV-1 = test system: IGROV-1
Malme-3M = test system: Malme-3M
SNB-19 = test system: SNB-19
DU-145 = test system: DU-145
K562 = test system: K562
786-0 = test system: 786-0
MDA-MB-435 = test system: MDA-MB-435
NCI-H23 = test system: NCI-H23
OVCAR-3 = test system: OVCAR-3
HOP-92 = test system: HOP-92
SR = test system: SR
BT-549 = test system: BT-549
COLO 205 = test system: COLO 205
MOLT-4 = test system: MOLT-4
PC-3 = test system: PC-3
SK-OV-3 = test system: SK-OV-3
SF-295 = test system: SF-295
SW-620 = test system: SW-620
CAKI-1 = test system: CAKI-1
T47D = test system: T47D
SN12C = test system: SN12C
OVCAR-5 = test system: OVCAR-5
HL-60 = test system: HL-60
MDA-N = test system: MDA-N
HCC 2998 = test system: HCC 2998
A498 = test system: A498
RXF 393 = test system: RXF 393
KM12 = test system: KM12

Measured: GI50

CC(=O)c1c(CO[N+](=O)[O-])[n+]([O-])c2ccccc2[n+]1[O-]
inactive: SK-MEL-28 72.1 µM | SK-MEL-2 > 100 µM | Hs-578T 41.1 µM | SNB-75 > 100 µM | UACC-62 35.7 µM | U-251 33.8 µM | CCRF-CEM 37.9 µM | M14 35.1 µM | SF-539 > 100 µM | NCI/ADR-RES > 100 µM | MCF7 74.3 µM | NCI-H460 > 100 µM | UO-31 70.6 µM | HOP-62 98.2 µM | TK-10 > 100 µM | OVCAR-8 > 100 µM | OVCAR-4 > 100 µM | RPMI-8226 56.6 µM | HCT-116 47.4 µM | NCI-H522 31.8 µM | EKVX > 100 µM | NCI-H226 34.2 µM | HT-29 > 100 µM | SK-MEL-5 68.1 µM | A549 > 100 µM | LOX IMVI 58.5 µM | SF-268 > 100 µM | UACC-257 > 100 µM | MDA-MB-231 53.7 µM | ACHN 61.1 µM | IGROV-1 41.5 µM | Malme-3M 53.7 µM | SNB-19 > 100 µM | DU-145 > 100 µM | K562 > 100 µM | 786-0 > 100 µM | MDA-MB-435 79.6 µM | NCI-H23 45.5 µM | OVCAR-3 52.8 µM | HOP-92 > 100 µM | SR 43.9 µM | BT-549 > 100 µM | COLO 205 61 µM | MOLT-4 78.3 µM | PC-3 > 100 µM | SK-OV-3 > 100 µM | SF-295 > 100 µM | SW-620 63.7 µM | CAKI-1 > 100 µM | T47D 61.4 µM | SN12C 64.1 µM | OVCAR-5 > 100 µM
30.8 µM: HCT-15

CC(=NNC(=S)Nc1cccc(C)c1)c1cccc(C(C)=NNC(=S)Nc2cccc(C)c2)n1
15.2 µM: HCT-15
active: UACC-257 0.0198 µM | KM12 851 nM
inactive: SK-MEL-28 > 100 µM | SK-MEL-2 13.3 µM | Hs-578T > 100 µM | SNB-75 17.5 µM | UACC-62 15.2 µM | U-251 21.5 µM | HL-60 17.3 µM | CCRF-CEM 4.22 µM | M14 11.8 µM | SF-539 14.6 µM | NCI/ADR-RES 14.2 µM | MDA-N 42 µM | MCF7 22.9 µM | NCI-H460 12.8 µM | UO-31 16 µM | HOP-62 17 µM | TK-10 20.3 µM | HCC 2998 43.3 µM | OVCAR-8 11 µM | OVCAR-4 9.95 µM | RPMI-8226 > 100 µM | HCT-116 12.2 µM | NCI-H522 21.2 µM | EKVX 26.1 µM | A498 21.9 µM | NCI-H226 18.6 µM | HT-29 26.1 µM | SK-MEL-5 8.89 µM | A549 18.7 µM | LOX IMVI 15.5 µM | SF-268 59.2 µM | MDA-MB-231 19 µM | ACHN 7.24 µM | IGROV-1 10.8 µM | Malme-3M 14.9 µM | SNB-19 30.5 µM | DU-145 > 100 µM | K562 17.1 µM | 786-0 8.18 µM | RXF 393 16.2 µM | MDA-MB-435 22.4 µM | NCI-H23 27.4 µM | OVCAR-3 3.39 µM | HOP-92 17.1 µM | SR 5.25 µM | COLO 205 8 µM | MOLT-4 15 µM | PC-3 22.3 µM | SK-OV-3 44.4 µM | SF-295 6.19 µM | SW-620 19 µM | CAKI-1 11.9 µM | T47D 30.8 µM | SN12C 25.8 µM | OVCAR-5 34.8 µM

Clc1ccc2sc(-n3ccc4ccccc43)nc2c1
inactive: SK-MEL-28 > 100 µM | Hs-578T 72.6 µM | SNB-75 49.3 µM | UACC-62 > 100 µM | U-251 > 100 µM | CCRF-CEM > 100 µM | NCI/ADR-RES > 100 µM | MCF7 26.1 µM | NCI-H460 > 100 µM | UO-31 > 100 µM | TK-10 > 100 µM | HCC 2998 > 100 µM | OVCAR-8 > 100 µM | EKVX > 100 µM | A498 > 100 µM | HT-29 75.9 µM | SK-MEL-5 > 100 µM | LOX IMVI > 100 µM | SF-268 > 100 µM | ACHN > 100 µM | IGROV-1 > 100 µM | SNB-19 24.2 µM | K562 97.1 µM | RXF 393 13.3 µM | NCI-H23 45.7 µM | BT-549 84.3 µM | MOLT-4 55.7 µM | PC-3 67.6 µM | SK-OV-3 > 100 µM | SW-620 > 100 µM | SN12C > 100 µM | OVCAR-5 > 100 µM
> 100 µM: HCT-15
